Experimental data published in patent US20050288222A1, “Methods for enhancing the bioavailability of a drug” (priority 2000, published 2005).
Converted amounts (≈) assume the structure as drawn. “And” between values parts separate entries of the source, which are not always exact repeats. Identical values can stand only once. Like-named read-outs stand apart in the source and are kept apart here. Non-standard residues stand in square brackets, D forms with d. Residues, ends and D or L forms follow the SMILES beside them. *: point of attachment. X1 = CC(C)C[C@H](C(=O)*)N(C)C

Legend:
[1] = rat, in vivo
Text: The perfused, ipsilateral, left forebrain (choroid plexus removed) was subjected to capillary depletion (as described by Triguero et al., 1990) so as to produce brain supernatant that was void of blood vessels (as determined by alkaline phosphatase measurements).

[2] = rat, in vivo; remark: listed apart in the source
[3] = rat, in vivo; remark: listed apart in the source
B-amyloid = B-amyloid (Homo sapiens, UniProt P05067); assay: KD of potent B-amyloid aggregation inhibitors (Table II); format: binding
[4] = Biodistribution of 3H-PPI-558 +/- cyclosporin A (experiment 4, Table III); conditions: for Kidney (expressed as % administered): rat, sac t = 61 min
[5] = rat, in vivo; remark: listed apart in the source
Experimental: (§1) The drug cocktail was infused (100 μL/h) via a cannula in the external carotid artery so that the infusate was picked up by the blood and carried directly to the Circle of Willis/brain (via the left internal carotid artery, PTA occluded). At 30 minutes post cessation of the 10 minute IA infusion the left side of the brain was voided of blood by manually infusing 1 ml of saline via the cannula in the external carotid artery with the common carotid artery now ligated. The perfused left forebrain (choroid plexus removed) was subjected to capillary depiction (as described by Triguero et al., 1990) so as to produce brain supernatant that was void of blood vessels (as determined by alkaline phosphatase measurements).

[6] = rat, in vivo; remark: listed apart in the source
in vivo [7] = conditions: male, Sprague-Dawley, rat
Experimental: as §1

in vivo [8] = assay: in vivo
[9] = in vivo

B-amyloid, sequence (P05067 672-711 limits assumed): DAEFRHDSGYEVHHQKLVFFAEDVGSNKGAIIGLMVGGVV

SMILES: CN[C@H](CC(C)C)C(=O)N[C@@H](C(=O)N[C@H](Cc1ccccc1)C(=O)N[C@H](Cc1ccccc1)C(=O)N[C@H](CC(C)C)C(N)=O)C(C)C [PPI-1019, N-methyl-(D-Leu-D-Val-D-Phe-D-Phe-D-Leu)-NH2]
- elevation of brain levels in the presence of cyclosporin A [1]: 5 fold
- solubility (physchem): 1000 µg/mL (≈ 1540 µM)
- levels within the liver in the presence of cyclosporin A [2]: decreased levels
- plasma levels in the presence of cyclosporin A [3]: elevated

SMILES: CC(C)C[C@@H](N)C(=O)N[C@@H](C(=O)N[C@H](Cc1ccccc1)C(=O)N[C@H](Cc1ccccc1)C(=O)N[C@@H](C(N)=O)C(C)C)C(C)C [PPI-657, H-D-Leu-D-Val-D-Phe-D-Phe-D-Val-NH2] (H-[dL][dV][dF][dF][dV]-NH2)
- Kd (B-amyloid): 0.33 nM
- solubility (physchem): 970 µg/mL (≈ 1560 µM)

SMILES: CC(C)C[C@@H](NC(=O)c1ccc(O)cc1)C(=O)N[C@@H](C(=O)N[C@H](Cc1ccccc1)C(=O)N[C@H](Cc1ccccc1)C(=O)N[C@H](C)C(N)=O)C(C)C [PPI-558, 4-Hydroxybenzoyl-D-Leu-D-Val-D-Phe-D-Phe-D-Ala-NH2]
- elevation of brain levels in the presence of cyclosporin A [1]: 10 fold
- solubility (physchem): 1 µg/mL (≈ 1.4 µM)
- Kidney (expressed as % administered) ([4]; PPI-558/DMPC (1:30) approx. 3 mg/kg IV, without cyclosporin A, MEAN): 0.95 % administered
- Kidney (expressed as % administered) ([4]; PPI-558/DMPC (1:30) approx. 3 mg/kg IV, without cyclosporin A, single animals): 0.7 % administered and 1.7 % administered and 0.5 % administered
- Kidney (expressed as % administered) ([4]; cyclosporin A 50 mg/kg IV + PPI-558/DMPC (1:30), MEAN): 2.59 % administered
- Kidney (expressed as % administered) ([4]; cyclosporin A 50 mg/kg IV + PPI-558/DMPC (1:30), single animals, 50 mg/kg): 2.5 % administered and 2.7 % administered
- Kidney FOLD INCREASE ([4]; with cyclosporin A versus without): 3 fold
- plasma levels in the presence of cyclosporin A [3]: elevated
- capillary bound level [5]: approx. 250 nM equiv.
- Cartass FOLD INCREASE [6]: 4 fold
- Colon FOLD INCREASE [6]: 4 fold
- Duodenum FOLD INCREASE [6]: 6 fold
- Fat FOLD INCREASE [6]: 2 fold
- Heart FOLD INCREASE [6]: 3 fold
- Ileum FOLD INCREASE [6]: 2 fold
- Liver FOLD INCREASE [6]: 0.4 fold
- Lung FOLD INCREASE [6]: 1 fold
- Muscle FOLD INCREASE [6]: 5 fold
- Pancreas FOLD INCREASE [6]: 7 fold
- Spleen FOLD INCREASE [6]: 1 fold
- Tongue FOLD INCREASE [6]: 5 fold
- Urine FOLD INCREASE [6]: 1 fold
- blood at sac FOLD INCREASE [6]: 6 fold
- levels within the small intestine in the presence of cyclosporin A [6]: higher levels
- level at time molar at 0.5 h (in vivo [7]): > 100 nM
- level at time molar (in vivo [8]): < 5 nM
- capillary bound level [9]: very low levels

SMILES: CC(C)C[C@@H](N)C(=O)N[C@H](Cc1ccccc1)C(=O)N[C@H](Cc1ccccc1)C(=O)N[C@@H](C(=O)N[C@H](CC(C)C)C(N)=O)C(C)C [PPI-578, H-lffvl-NH2]
- Kd (B-amyloid): 0.29 nM
- solubility (physchem): 2500 µg/mL (≈ 3930 µM)

SMILES: CC(C)C[C@H](C(=O)N[C@@H](C(=O)N[C@H](Cc1ccccc1)C(=O)N[C@H](Cc1ccccc1)C(=O)N[C@H](CC(C)C)C(N)=O)C(C)C)N(C)C [PPI-1007, (CH3)2-lvffl-NH2] (X1-[dV][dF][dF][dL]-NH2)
- solubility (physchem): 180 µg/mL (≈ 271 µM)

SMILES: CC(C)C[C@@H](N)C(=O)N[C@@H](C(=O)N[C@H](Cc1ccccc1)C(=O)N[C@H](Cc1ccccc1)C(=O)N[C@H](C)C(N)=O)C(C)C [PPI-465, H-lvffa-NH2]
- Kd (B-amyloid): 0.92 nM
- solubility (physchem): 1490 µg/mL (≈ 2510 µM)

SMILES: CC(C)C[C@@H](N)C(=O)N[C@@H](C(=O)N[C@H](Cc1ccccc1)C(=O)NNC(=O)[C@@H](Cc1ccccc1)NC(=O)[C@H](NC(=O)[C@H](N)CC(C)C)C(C)C)C(C)C [PPI-1125, (H-lvf-NH-)2]
- solubility (physchem): 5000 µg/mL (≈ 6660 µM)
